# Measurements as given in US9663764B2, “Generation of cardiomyocytes from human pluripotent stem cells” (Wisconsin Alumni Research Foundation, priority 2011, dated 2017).
# Key:
# Assay type in all cases: cell-based, human
# IMR90C4 iPSC line = assay: Activin A/BMP4 directed cardiac differentiation with BIO pretreatment, cTnT flow cytometry; settings: three days of BIO pretreatment prior to Activin A and BMP4; day 15
# Experimental: (§1) Cardiac directed differentiation using Activin A and BMP4: hPS cells maintained on Matrigel® in mTeSR1 were dissociated into single cells with Accutase (Invitrogen) at 37° C. for 5 min and then seeded onto a Matrigel®-coated cell culture dish at 100,000 cell/cm^2 in mTeSR1 supplemented with 5 μM ROCK inhibitor (Y-27632, Stemgent) (day −5). Cells were cultured in mTeSR1, changed daily. At day 0, cells were treated with 100 ng/ml Activin A (R&D) in RPMI/B27-insulin. After 24 hr, the medium was changed to RPMI/B27-insulin supplemented with 5 ng/ml BMP4 (R&D) for another 4 days. At day 5, the medium was changed with RPMI/B27-insulin. At day 7 the cells were transferred to RPMI/B27, and medim changed every 3 days. When using GSK3 inhibitors to stimulate differentiation, cells were cultured in mTeSR1 containing BIO or CHIR99021 from day −3 to day 0.
# Flow Cytometry: Cells were dissociated into single cells and then fixed with 1% paraformaldehyde for 20 min at room temperature and stained with primary and secondary antibodies in PBS plus 0.1% Triton X-100 and 0.5% BSA. For the cell proliferation assay, a 17-hour pulse of BrdU was performed to identify dividing cardiomyocytes (Zhang et al., Circ. Res. 104, e30-41 (2009)). Data were collected on a FACSCaliber flow cytometer (Beckton Dickinson) and analyzed using FlowJo. […]
# H9 hESCs = assay: Activin A/BMP4 directed cardiac differentiation with GSK3 inhibitor pretreatment, cTnT flow cytometry; settings: for contracting cardiomyocytes generated: Activin A and BMP4 protocol without GSK3 inhibitor, H9 cells
# Experimental: as §1
# (§2) Flow Cytometry: Cells were dissociated into single cells and then fixed with 1% paraformaldehyde for 20 min at room temperature and stained with primary and secondary antibodies in PBS plus 0.1% Triton X-100 and 0.5% BSA. For the cell proliferation assay, a 17-hour pulse of BrdU was performed to identify dividing cardiomyocytes (Zhang et al., Circ. Res. 104, e30-41 (2009)). Data were collected on a FACSCaliber flow cytometer (Beckton Dickinson) and analyzed using FlowJo.
# Undifferentiated H9 hESCs were cultured in the presence of 0-8 μM CH for three days prior to EB formation. EBs were cultured in suspension for 4 days before transferring to 0.1% gelatin coated plates. […] The inventors also applied the GSK3 inhibitors CH and BIO to undifferentiated H9 hESCs three days prior to directed differentiation to cardiomyocytes via Activin A and BMP4.
# [1] = tested on: Smad1/5 and Smad2 phosphorylation in 19-9-11 ishcat cells; assay: Smad1/5 and Smad2 phosphorylation, western blot; settings: for Smad1/5 and Smad2 phosphorylation: 100 ng/ml Activin A at day 0 and 5 ng/ml BMP4 at day 1
# Experimental: Western Blot Analysis: Cells were lysed in M-PER Mammalian Protein Extraction Reagent (Pierce) in the presence of Halt Protease and Phosphatase Inhibitor Cocktail (Pierce). Proteins were separated by 10% Tris-Glycine SDS/PAGE (Invitrogen) under denaturing conditions and transferred to a nitrocellulose membrane. After blocking with 5% milk in TBST, the membrane was incubated with primary antibody overnight at 4° C. The membrane was then washed, incubated with an anti-mouse/rabbit peroxidase-conjugated secondary antibody (1:1000, Cell Signaling) at room temperature for 1 hr, and developed by SuperSignal chemiluminescence (Pierce).
# To determine whether canonical Wnt signaling requires TGFβ superfamily signaling to induce cardiogenesis, the inventors quantified cTnT+ cell generation in 19-9-11 ishcat-2 cells when Activin A and BMP4 signaling antagonists were presented during the first 24 hr of cardiomyocyte induction with 12 μM CH. All samples were treated with dox at 48 hours. […] To further investigate the role of TGFβ superfamily signaling in Wnt pathway-mediated cardiogenesis the inventors assessed Smad1/5 and Smad2 phosphorylation, downstream of BMP4 and Activin A signaling respectively. As expected, substantial Smad1/5 and Smad2 phosphorylation was detected in cells that had been treated with Activin A and BMP4 (FIGS. 9B and 10A).
# 19-9-11 ishcat-2 cells = assay: cTnT+ cell generation with Activin A and BMP4 signaling antagonists during CH induction; settings: dox at 48 hours
# Experimental: (§3) cardiac directed differentiation via small molecules: Cells were dissociated and plated as described in the Activin/BMP4 protocol. When hPS cells maintained on Matrigel® or Synthemax plates achieved confluence, cells were treated with CH in RPMI/B27-insulin for 24 hr (day 0 to day 1). The medium was changed to RPMI/B27-insulin, followed by 2 μg/ml dox treatment at different times between day 1 and day 5 for transgenic cell lines. For genetically unmodified lines, 5 μM IWP2 (Tocris) or IWP4 (Stemgent) was added at day 3 and removed during the day 5 medium change. Cells were maintained in the RPMI/B27 starting from day 7, with the medium changed every 3 days.
# Flow Cytometry: Cells were dissociated into single cells and then fixed with 1% paraformaldehyde for 20 min at room temperature and stained with primary and secondary antibodies in PBS plus 0.1% Triton X-100 and 0.5% BSA. […] Data were collected on a FACSCaliber flow cytometer (Beckton Dickinson) and analyzed using FlowJo.
# To determine whether canonical Wnt signaling requires TGFβ superfamily signaling to induce cardiogenesis, the inventors quantified cTnT+ cell generation in 19-9-11 ishcat-2 cells when Activin A and BMP4 signaling antagonists were presented during the first 24 hr of cardiomyocyte induction with 12 μM CH. […]
# 19-9-11 iPSCs = assay: Cardiac directed differentiation via small molecules on Matrigel, cTnT/MF20 flow cytometry; settings: for cTNT+ or MF20+ cells: 12 μM CH at day 0, then 5 μM Wnt inhibitor at day 3, after 15 days
# Experimental: as §3, §2
# While shRNA inhibition of β-catenin provides specific and facile temporal regulation of canonical Wnt signaling, this method requires genetic modification of the hPS cell line which limits its potential clinical utility. The inventors next used the mechanistic insight these modified lines provided regarding the sufficiency of canonical Wnt signaling in cardiomyogenesis to develop a completely defined, growth factor free method of efficiently generating cardiomyocytes from unmodified hPS cell lines using small molecules. First, 19-9-11 iPSCs were maintained in mTeSR1 on Matrigel® for five days, and then the medium was switched to RPMI/B27-insulin containing 12 μM CH. IWP4 and IWP2, which prevent palmitylation of Wnt proteins by porcupine thereby blocking Wnt protein secretion and activity (Chen et al., Nat. Chem. Biol. 5:100-107 (2009)), were used to inhibit Wnt signaling. […] Similar to results obtained with the 19-9-11 ishcat-1 cell line, CH treatment of 19-9-11 cells alone only generated 16% cTNT+ or MF20+ cells after 15 days, while adding 5 μM IWP4 or IWP2 at day 3 increased this to 87% cTNT+ or MF20+ cells. […] In order to achieve fully defined culture conditions, Matrigel® was replaced with a defined peptide acrylate surface (Synthemax) during both hPS cell expansion and differentiation. […] Thus, optimization of canonical WNT signaling via stage-specific addition of small molecule agonists and antagonists produces high yields of functional cardiomyocytes in a completely defined, growth factor free culture system.
# [2] = tested on: 19-9-11 and IMR90C4 iPSCs; assay: Cardiac directed differentiation via small molecules on Synthemax plates, cTnT/MF20 flow cytometry; settings: 12 μM CH at day 0 and 5 μM IWP4 at day 3, day 15
# Experimental: as §3, §2
# While shRNA inhibition of β-catenin provides specific and facile temporal regulation of canonical Wnt signaling, this method requires genetic modification of the hPS cell line which limits its potential clinical utility. […]
molecule,measurement,setting,value
O=C1Nc2cc(Br)ccc2/C1=C1/Nc2ccccc2/C1=N\O [BIO],generation of cTNT-expressing cells,IMR90C4 iPSC line,enhanced generation of cTNT-expressing cells in the IMR90C4 iPSC line in a dose-dependent manner
same,cTNT-labeled cells,"H9 hESCs; GSK3 inhibitor (1 μM) 3 days prior to Activin A and BMP4, day 15, average",50%
NC(=O)c1ccc(-c2nc(-c3ccc4c(c3)OCO4)c(-c3ccccn3)[nH]2)cc1 [SB431542],Smad2 phosphorylation,[1]; 12 μM CH plus SB431542,diminished
same,concentrations that completely blocked cardiomyocyte specification,"19-9-11 ishcat-2 cells; with 12 μM CH for first 24 hr, cTnT+ at day 15",greater than 2 μM
"COc1ccccc1-n1c(SCC(=O)Nc2nc3ccc(C)cc3s2)nc2c(c1=O)SCC2 [IWP4, 2-(3,4,6,7-tetrahydro-3-(2-methoxyphenyl)-4-oxothieno[3,2-d]pyrimidin-2-ylthio)-N-(6-methylbenzo[d]thiazol-2-yl)acetamide]",IWP4 concentration giving optimal generation of cardiomyocytes,"19-9-11 iPSCs; 12 μM CH at day 0, IWP4 added at day 3",5 µM
same,cTNT+ or MF20+ cells,19-9-11 iPSCs,87%
same,cTNT+ or MF20+ cells,[2],approximately 85%
"Cc1ccc2nc(NC(=O)CSc3nc4c(c(=O)n3-c3ccccc3)SCC4)sc2c1 [IWP2, N-(6-Methyl-2-benzothiazolyl)-2-[(3,4,6,7-tetrahydro-4-oxo-3-phenylthieno[3,2-d]pyrimidin-2-yl)thio]-acetamide]",cTNT+ or MF20+ cells,19-9-11 iPSCs,87%
CC(C)Oc1ccc(-c2cnc3c(-c4ccnc5ccccc45)cnn3c2)cc1 [DMH1],Smad1/5 phosphorylation,[1]; 12 μM CH plus DMH1,strongly attenuated
same,percentage of cTnT+ cells,"19-9-11 ishcat-2 cells; 0.2-1 μM DMH1 with 12 μM CH for first 24 hr, day 15",decreased the percentage of cTnT+ cells in a concentration-dependent manner
"Activin A: growth factor (R&D) used at 100 ng/ml for directed cardiac differentiation (protein, UniProt P08476 311-426, looked up, Inhibin beta A chain, growth factor (R&D) used at 100 ng/ml for directed cardiac differentiation) Inhibin beta A chain: GLECDGKVNICCKKQFFVSFKDIGWNDWIIAPSGYHANYCEGECPSHIAGTSGSSLSFHSTVINHYRMRGHSPFANLKSCCVPTKLRPMSMLYYDDGQNIIKKDIQNMIVEECGCS",Smad1/5 and Smad2 phosphorylation,[1],substantial
same,contracting cardiomyocytes generated,H9 hESCs,very few contracting cardiomyocytes
"BMP4: growth factor (R&D) used at 5 ng/ml for directed cardiac differentiation (protein, UniProt P12644 293-408, looked up) Bone morphogenetic protein 4: SPKHHSQRARKKNKNCRRHSLYVDFSDVGWNDWIVAPPGYQAFYCHGDCPFPLADHLNSTNHAIVQTLVNSVNSSIPKACCVPTELSAISMLYLDEYDKVVLKNYQEMVVEGCGCR",Smad1/5 and Smad2 phosphorylation,[1],substantial
same,contracting cardiomyocytes generated,H9 hESCs,very few contracting cardiomyocytes
